Results published in US12673945B2, “3-((8-((1H-pyrazol-4-yl)amino)imidazo[1,2-a]pyridin-3-yl)ethinyl)-n-phenylbenzamide derivative, method for preparing same, and pharmaceutical composition containing same as active ingredient for prevention or treatment of cancer” (DAEGU-GYEONGBUK MEDICAL INNOVATION FOUNDATION, priority 2020, dated 2026).

Legend:
[1] = oral pharmacokinetic test; type: in vivo, ICR mice; settings: ICR, mouse, plasma, 10 mg/kg, 10 mg/Kg PO
Protocol: To evaluate the pharmacokinetic properties in vivo, oral pharmacokinetic test was performed with the compounds of Comparative Examples 1 and 4 and Examples 1 and 4 using mice and rats, and the PK parameters are shown in Table 10.
ICR mice (6-7 weeks old) and SD rats (6-7 weeks old) were used for the test. The fasted group was fasted about 16 hours before oral administration, and the fed group was fasted about 4 hours before oral administration. The test drug for oral administration was used by dissolving the drug in a vehicle at a concentration of 1 mg/mL for use, and blood samples were collected (time point: 0.25, 0.5, 1, 2, 4, 8, 12, 24, 32, n=3) from the heart (mouse, 500 μL/time point) or jugular vein (rat, 120 μL/time point). Blood was centrifuged at 12,000 G at 4° C. for 2 minutes to separate plasma, and stored at −80° C. until analysis. • Vehicle A (NMP:PEG400=5:95) • Vehicle B (0.5% methyl cellulose) 6-2. Sampling and Pretreatment
To 20 μl of plasma, 180 μl of acetonitrile (including internal standard) was added. The mixture was vortexed and centrifuged for 5 minutes at 15,000 rpm at 4° C. The supernatant obtained after centrifugation was analyzed by LC-MS/MS.
PK parameters were calculated with a non-compartmental analysis model using Phoenix WinNonlin 6.4 version (Pharsight, USA) program.

[2] = target: T1, EGFR(L861Q) (Homo sapiens, UniProt P00533, L861Q); assay: scanMAX Kinase panel (DiscoverX); type: binding
T1 construct: purchased DiscoverX scanMAX Kinase panel
How it was run: (§1)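 Compound (1 μM, DMSO) incubated with each panel kinase. Signal was normalised to the control range, giving % control by the formula (sample − positive)/(negative − positive)×100.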

[3] = target: T2, YSK4 (Homo sapiens, UniProt Q56UN5); assay: scanMAX Kinase panel (DiscoverX); type: binding; settings: read-out: % Cont @ 1 uM
T2 construct: purchased DiscoverX scanMAX Kinase panel
How it was run: as §1

[4] = target: T3, TIE2 (Homo sapiens, UniProt Q02763); assay: scanMAX Kinase panel (DiscoverX); type: binding; settings: read-out: % Cont @ 1 uM
T3 construct: purchased DiscoverX scanMAX Kinase panel
How it was run: as §1

[5] = target: T4, CDC2L2 (Homo sapiens, UniProt Q9UQ88); assay: scanMAX Kinase panel (DiscoverX); type: binding; settings: read-out: % Cont @ 1 uM
T4 construct: purchased DiscoverX scanMAX Kinase panel
How it was run: as §1

[6] = target: T5, EGFR(L858R) (Homo sapiens, UniProt P00533, L858R); assay: scanMAX Kinase panel (DiscoverX); type: binding
T5 construct: purchased DiscoverX scanMAX Kinase panel
How it was run: as §1

[7] = target: T6, ABL1(H396P)-nonphosphorylated (Homo sapiens, UniProt P00519, H396P); assay: scanMAX Kinase panel (DiscoverX); type: binding; settings: read-out: % Cont @ 1 uM
T6 construct: purchased DiscoverX
How it was run: as §1

[8] = target: T7, STK35 (Homo sapiens, UniProt Q8TDR2); assay: scanMAX Kinase panel (DiscoverX); type: binding; settings: read-out: % Cont @ 1 uM
T7 construct: purchased DiscoverX scanMAX Kinase panel
How it was run: as §1

[9] = target: T8, FYN (Homo sapiens, UniProt P06241); assay: scanMAX Kinase panel (DiscoverX); type: binding; settings: read-out: % Cont @ 1 uM
T8 construct: purchased DiscoverX scanMAX Kinase panel
How it was run: as §1

[10] = target: T9, DDR1 (Homo sapiens, UniProt Q08345); assay: scanMAX Kinase panel (DiscoverX); type: binding; settings: read-out: % Cont @ 1 uM
T9 construct: purchased DiscoverX scanMAX Kinase panel
How it was run: as §1

[11] = target: T10, ERBB2 (Homo sapiens, UniProt P04626); assay: scanMAX Kinase panel (DiscoverX); type: binding; settings: read-out: % Cont @ 1 uM
T10 construct: purchased DiscoverX scanMAX Kinase panel
How it was run: as §1

[12] = target: T11, NLK (Homo sapiens, UniProt Q9UBE8); assay: scanMAX Kinase panel (DiscoverX); type: binding; settings: read-out: % Cont @ 1 uM
T11 construct: purchased DiscoverX scanMAX Kinase panel
How it was run: as §1

[13] = system: FLT3(ITD, F691L); assay: scanMAX Kinase panel (DiscoverX); type: binding
How it was run: as §1

[14] = target: T12, PFTAIRE2 (Homo sapiens, UniProt Q96Q40); assay: scanMAX Kinase panel (DiscoverX); type: binding; settings: read-out: % Cont @ 1 uM
T12 construct: purchased DiscoverX scanMAX Kinase panel
How it was run: as §1

[15] = target: T13, EPHA5 (Homo sapiens, UniProt P54756); assay: scanMAX Kinase panel (DiscoverX); type: binding
T13 construct: purchased DiscoverX scanMAX Kinase panel
How it was run: as §1

[16] = target: T14, HPK1 (Homo sapiens, UniProt Q92918); assay: scanMAX Kinase panel (DiscoverX); type: binding; settings: read-out: % Cont @ 1 uM
T14 construct: purchased DiscoverX scanMAX Kinase panel
How it was run: as §1

[17] = target: T15, FGFR3 (Homo sapiens, UniProt P22607); assay: scanMAX Kinase panel (DiscoverX); type: binding; settings: read-out: % Cont @ 1 uM
T15 construct: purchased DiscoverX scanMAX Kinase panel
How it was run: as §1

[18] = target: T16, KIT(D816V) (Homo sapiens, UniProt P10721, D816V); assay: scanMAX Kinase panel (DiscoverX); type: binding; settings: read-out: % Cont @ 1 uM
T16 construct: purchased DiscoverX scanMAX Kinase panel
How it was run: as §1

[19] = target: T17, FLT3(D835H) (Homo sapiens, UniProt P36888, D835H); assay: scanMAX Kinase panel (DiscoverX); type: binding; settings: read-out: % Cont @ 1 uM
T17 construct: purchased DiscoverX scanMAX Kinase panel
How it was run: as §1

[20] = target: T18, MERTK (Homo sapiens, UniProt Q12866); assay: scanMAX Kinase panel (DiscoverX); type: binding; settings: read-out: % Cont @ 1 uM
T18 construct: purchased DiscoverX scanMAX Kinase panel
How it was run: as §1

[21] = target: T19, GCN2(Kin.Dom.2, S808G) (Homo sapiens, UniProt Q9P2K8, S808G); assay: scanMAX Kinase panel (DiscoverX); type: binding; settings: read-out: % Cont @ 1 uM
T19 construct: GCN2(Kin.Dom.2,S808G); purchased DiscoverX scanMAX Kinase panel
How it was run: as §1

[22] = target: T20, TRKB (Homo sapiens, UniProt Q16620); assay: scanMAX Kinase panel (DiscoverX); type: binding; settings: read-out: % Cont @ 1 uM
T20 construct: purchased DiscoverX scanMAX Kinase panel
How it was run: as §1

[23] = target: T21, TYK2(JH1domain-catalytic) (Homo sapiens, UniProt P29597); assay: scanMAX Kinase panel (DiscoverX); type: binding
T21 construct: TYK2(JH1domain-catalytic); purchased DiscoverX scanMAX Kinase panel
How it was run: as §1

[24] = vehicle B (0.5% methyl cellulose)

T11 sequence (Q9UBE8 whole entry): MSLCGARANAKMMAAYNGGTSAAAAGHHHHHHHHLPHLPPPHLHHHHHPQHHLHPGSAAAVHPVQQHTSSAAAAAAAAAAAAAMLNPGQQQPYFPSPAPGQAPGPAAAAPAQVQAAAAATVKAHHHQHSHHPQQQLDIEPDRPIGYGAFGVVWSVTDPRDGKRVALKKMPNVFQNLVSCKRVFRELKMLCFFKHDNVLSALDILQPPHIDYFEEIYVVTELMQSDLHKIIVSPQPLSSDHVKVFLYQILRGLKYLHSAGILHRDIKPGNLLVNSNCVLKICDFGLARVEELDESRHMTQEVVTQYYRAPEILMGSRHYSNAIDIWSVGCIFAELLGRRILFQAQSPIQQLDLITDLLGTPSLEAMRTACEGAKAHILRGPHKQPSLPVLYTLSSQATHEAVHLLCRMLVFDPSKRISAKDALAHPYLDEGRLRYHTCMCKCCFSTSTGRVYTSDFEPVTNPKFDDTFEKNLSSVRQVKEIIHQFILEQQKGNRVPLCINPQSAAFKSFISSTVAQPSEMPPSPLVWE
T3 sequence (Q02763 23-1124): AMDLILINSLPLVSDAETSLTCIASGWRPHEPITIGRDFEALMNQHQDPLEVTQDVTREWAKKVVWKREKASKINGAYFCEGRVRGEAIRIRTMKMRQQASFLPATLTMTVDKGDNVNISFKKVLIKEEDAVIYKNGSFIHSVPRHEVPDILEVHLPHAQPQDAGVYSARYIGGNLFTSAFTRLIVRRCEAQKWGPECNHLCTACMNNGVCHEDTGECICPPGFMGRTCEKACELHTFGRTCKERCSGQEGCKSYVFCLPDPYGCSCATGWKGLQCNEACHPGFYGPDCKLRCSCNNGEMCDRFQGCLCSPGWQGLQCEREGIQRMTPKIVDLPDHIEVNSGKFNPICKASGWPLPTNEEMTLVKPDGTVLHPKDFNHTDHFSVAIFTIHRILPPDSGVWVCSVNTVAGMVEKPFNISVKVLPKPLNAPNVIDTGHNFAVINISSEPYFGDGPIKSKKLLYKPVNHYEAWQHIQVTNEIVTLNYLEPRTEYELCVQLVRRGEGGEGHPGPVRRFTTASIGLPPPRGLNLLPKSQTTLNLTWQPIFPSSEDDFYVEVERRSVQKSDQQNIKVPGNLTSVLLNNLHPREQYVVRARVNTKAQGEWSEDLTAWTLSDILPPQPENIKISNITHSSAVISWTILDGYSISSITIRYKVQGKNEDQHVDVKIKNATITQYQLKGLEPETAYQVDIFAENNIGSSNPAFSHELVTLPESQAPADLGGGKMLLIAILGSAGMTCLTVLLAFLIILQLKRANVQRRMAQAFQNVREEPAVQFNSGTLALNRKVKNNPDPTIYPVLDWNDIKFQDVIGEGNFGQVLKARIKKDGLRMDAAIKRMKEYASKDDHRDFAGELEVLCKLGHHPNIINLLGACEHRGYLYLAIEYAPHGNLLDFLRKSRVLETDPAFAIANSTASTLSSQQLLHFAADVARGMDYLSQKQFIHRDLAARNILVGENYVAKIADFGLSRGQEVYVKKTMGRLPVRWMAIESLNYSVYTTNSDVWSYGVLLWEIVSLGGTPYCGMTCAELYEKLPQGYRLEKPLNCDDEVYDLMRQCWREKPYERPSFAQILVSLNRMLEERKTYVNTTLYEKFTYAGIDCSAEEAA
T10 sequence (P04626 23-1255): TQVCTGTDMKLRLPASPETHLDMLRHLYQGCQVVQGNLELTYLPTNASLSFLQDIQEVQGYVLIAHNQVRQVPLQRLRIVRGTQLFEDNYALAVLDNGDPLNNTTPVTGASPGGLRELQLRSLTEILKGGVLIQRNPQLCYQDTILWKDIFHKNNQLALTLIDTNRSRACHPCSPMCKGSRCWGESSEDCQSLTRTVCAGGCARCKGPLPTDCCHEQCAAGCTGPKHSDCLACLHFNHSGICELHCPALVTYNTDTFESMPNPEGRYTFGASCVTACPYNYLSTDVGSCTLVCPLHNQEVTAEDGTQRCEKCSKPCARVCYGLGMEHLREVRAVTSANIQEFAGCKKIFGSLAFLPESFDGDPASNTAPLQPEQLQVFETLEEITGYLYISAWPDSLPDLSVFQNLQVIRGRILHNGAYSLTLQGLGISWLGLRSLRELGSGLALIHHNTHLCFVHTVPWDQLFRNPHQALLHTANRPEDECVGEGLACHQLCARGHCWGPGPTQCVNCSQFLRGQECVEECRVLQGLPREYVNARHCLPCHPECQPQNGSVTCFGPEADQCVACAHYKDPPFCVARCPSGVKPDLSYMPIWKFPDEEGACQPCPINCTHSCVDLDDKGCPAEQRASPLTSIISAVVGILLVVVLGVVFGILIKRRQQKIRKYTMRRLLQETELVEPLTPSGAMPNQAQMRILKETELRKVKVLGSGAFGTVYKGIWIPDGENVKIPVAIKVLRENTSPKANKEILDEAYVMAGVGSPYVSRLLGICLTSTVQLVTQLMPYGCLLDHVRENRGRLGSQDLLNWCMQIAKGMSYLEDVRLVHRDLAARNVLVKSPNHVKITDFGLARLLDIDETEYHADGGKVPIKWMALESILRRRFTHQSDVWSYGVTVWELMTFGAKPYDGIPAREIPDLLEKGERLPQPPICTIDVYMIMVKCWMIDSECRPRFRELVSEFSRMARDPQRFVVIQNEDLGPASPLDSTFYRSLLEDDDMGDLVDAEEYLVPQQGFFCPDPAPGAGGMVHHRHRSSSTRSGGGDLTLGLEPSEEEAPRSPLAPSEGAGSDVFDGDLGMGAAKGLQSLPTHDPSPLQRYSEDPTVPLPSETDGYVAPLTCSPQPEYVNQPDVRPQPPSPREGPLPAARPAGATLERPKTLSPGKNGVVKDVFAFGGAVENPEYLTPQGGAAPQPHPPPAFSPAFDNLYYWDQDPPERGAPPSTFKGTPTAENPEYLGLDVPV
T2 sequence (Q56UN5 whole entry): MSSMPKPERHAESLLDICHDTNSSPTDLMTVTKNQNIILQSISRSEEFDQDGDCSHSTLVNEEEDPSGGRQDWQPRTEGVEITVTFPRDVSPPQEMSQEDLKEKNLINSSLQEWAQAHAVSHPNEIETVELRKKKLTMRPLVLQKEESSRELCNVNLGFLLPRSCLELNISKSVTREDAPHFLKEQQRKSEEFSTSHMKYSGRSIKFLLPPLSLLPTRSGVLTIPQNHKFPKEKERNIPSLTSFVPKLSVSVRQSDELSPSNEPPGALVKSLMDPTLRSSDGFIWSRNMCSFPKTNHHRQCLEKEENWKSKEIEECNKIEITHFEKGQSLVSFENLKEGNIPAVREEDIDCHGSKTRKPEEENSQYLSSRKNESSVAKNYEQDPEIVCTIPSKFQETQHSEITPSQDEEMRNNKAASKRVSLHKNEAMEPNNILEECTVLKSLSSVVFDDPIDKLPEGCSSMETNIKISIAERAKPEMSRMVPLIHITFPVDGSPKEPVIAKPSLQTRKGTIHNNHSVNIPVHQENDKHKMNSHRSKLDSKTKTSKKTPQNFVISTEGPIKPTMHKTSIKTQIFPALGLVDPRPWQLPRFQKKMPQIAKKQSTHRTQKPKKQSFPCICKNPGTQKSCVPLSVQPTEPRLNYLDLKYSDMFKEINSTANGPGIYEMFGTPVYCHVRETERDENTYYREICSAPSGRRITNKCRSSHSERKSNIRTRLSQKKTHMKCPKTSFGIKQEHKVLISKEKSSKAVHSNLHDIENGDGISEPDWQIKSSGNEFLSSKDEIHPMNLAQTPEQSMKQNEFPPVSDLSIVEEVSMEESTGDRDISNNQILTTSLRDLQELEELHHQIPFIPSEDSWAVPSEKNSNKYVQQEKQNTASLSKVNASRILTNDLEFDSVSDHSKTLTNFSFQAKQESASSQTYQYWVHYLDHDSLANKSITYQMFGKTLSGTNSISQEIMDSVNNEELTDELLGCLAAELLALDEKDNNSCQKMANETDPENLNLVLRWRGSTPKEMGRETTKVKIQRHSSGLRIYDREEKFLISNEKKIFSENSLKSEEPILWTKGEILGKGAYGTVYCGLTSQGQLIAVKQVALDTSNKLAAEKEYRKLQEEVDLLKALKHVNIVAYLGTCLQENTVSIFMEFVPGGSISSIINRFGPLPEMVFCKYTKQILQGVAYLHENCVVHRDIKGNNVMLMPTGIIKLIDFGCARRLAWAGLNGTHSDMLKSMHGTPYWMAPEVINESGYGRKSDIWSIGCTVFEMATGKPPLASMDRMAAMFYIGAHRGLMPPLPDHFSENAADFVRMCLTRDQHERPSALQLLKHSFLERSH
T9 sequence (Q08345 19-913): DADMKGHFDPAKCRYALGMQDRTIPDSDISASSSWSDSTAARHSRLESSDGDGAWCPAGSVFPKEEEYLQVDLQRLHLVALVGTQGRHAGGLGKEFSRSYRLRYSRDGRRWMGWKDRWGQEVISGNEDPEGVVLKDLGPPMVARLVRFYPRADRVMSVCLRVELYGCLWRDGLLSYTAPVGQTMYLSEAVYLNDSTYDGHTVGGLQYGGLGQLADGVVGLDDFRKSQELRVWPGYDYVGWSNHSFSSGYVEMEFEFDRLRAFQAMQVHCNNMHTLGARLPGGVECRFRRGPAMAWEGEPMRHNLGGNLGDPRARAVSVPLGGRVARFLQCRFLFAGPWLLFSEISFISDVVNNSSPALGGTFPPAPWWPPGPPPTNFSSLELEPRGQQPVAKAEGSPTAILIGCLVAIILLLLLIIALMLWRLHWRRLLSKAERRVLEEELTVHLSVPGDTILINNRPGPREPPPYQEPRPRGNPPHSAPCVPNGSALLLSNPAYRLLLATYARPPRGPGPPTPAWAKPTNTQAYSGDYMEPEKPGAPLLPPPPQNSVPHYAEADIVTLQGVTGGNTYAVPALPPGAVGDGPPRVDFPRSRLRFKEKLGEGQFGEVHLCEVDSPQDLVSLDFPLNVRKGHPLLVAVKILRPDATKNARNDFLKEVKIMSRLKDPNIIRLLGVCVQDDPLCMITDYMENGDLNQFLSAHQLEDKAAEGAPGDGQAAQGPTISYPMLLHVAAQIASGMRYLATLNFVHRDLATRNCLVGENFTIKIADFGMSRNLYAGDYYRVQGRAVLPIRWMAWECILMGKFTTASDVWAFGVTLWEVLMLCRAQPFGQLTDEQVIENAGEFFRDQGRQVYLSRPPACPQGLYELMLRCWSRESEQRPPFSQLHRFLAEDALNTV

| Compound | AUC(0-t) [1, 24] [ng·h/mL] | Cmax [1, 24] [ng/mL] | half-life [1, 24] [h] | % Cont @ 1 uM [2] [%] | remaining binding at 1 µM [3] [%] | remaining binding at 1 µM [4] [%] | remaining binding at 1 µM [5] [%] | % Cont @ 1 uM [6] [%] | remaining binding at 1 µM [7] [%] | remaining binding at 1 µM [8] [%] | remaining binding at 1 µM [9] [%] | remaining binding at 1 µM [10] [%] | remaining binding at 1 µM [11] [%] | remaining binding at 1 µM [12] [%] | % Cont @ 1 uM [13] [%] | remaining binding at 1 µM [14] [%] | % Cont @ 1 uM [15] [%] | remaining binding at 1 µM [16] [%] | remaining binding at 1 µM [17] [%] | percent of control binding at 1 µM [18] [%] | also measured |
| --- | --- | --- | --- | --- | --- | --- | --- | --- | --- | --- | --- | --- | --- | --- | --- | --- | --- | --- | --- | --- | --- |
| Cc1cn(-c2cc(NC(=O)c3cc(C#Cc4cnc5c(Nc6cnn(C)c6)cccn45)c(C)cc3F)cc(C(F)(F)F)c2)cn1 [Example 4, 2-fluoro-4-methyl-N-(3-(4-methyl-1H-imidazol-1-yl)-5-(trifluoromethyl)phenyl)-5-((8-((1-methyl-1H-pyrazol-4-yl)amino)imidazo[1,2-a]pyridin-3-yl)ethynyl)benzamide] | 30400 | 3360 | 2.1 | 53 | 3 | 0.7 | 83 | 57 | 2.9 | 94 | 32 | 0 | 65 | 14 | 37 | 76 | 26 | 41 | 88 | 61 | remaining binding at 1 µM [19]: 4.5%; remaining binding at 1 µM [20]: 3.3%; remaining binding at 1 µM [21]: 64%; remaining binding at 1 µM [22]: 7.7%; % Cont @ 1 uM [23]: 72% |
| Cc1cn(-c2cc(NC(=O)c3cc(C#Cc4cnc5c(Nc6cnn(C)c6)cccn45)c(C)cc3F)cc(C(C)(C)C#N)c2)cn1 [Example 1, N-(3-(2-cyanopropane-2-yl)-5-(4-methyl-1H-imidazol-1-yl)phenyl)-2-fluoro-4-methyl-5-((8-((1-methyl-1H-pyrazol-4-yl)amino)imidazo[1,2-a]pyridin-3-yl)ethynyl)benzamide] | 80300 | 10000 | 2.4 | 6.7 | 0.3 | 0.4 | 24 | 5.5 | 1.2 | 10 | 3 | 0.15 | 34 | 0 | 5.1 | 4.3 | 8.9 | 2 | 23 | 13 | AUC(0-t) ([1]; vehicle A (NMP:PEG400=5:95)): 138000 ng·h/mL; Cmax ([1]; vehicle A (NMP:PEG400=5:95)): 8570 ng/mL; half-life ([1]; vehicle A (NMP:PEG400=5:95)): 2.5 h; remaining binding at 1 µM [19]: 0.45%; remaining binding at 1 µM [20]: 6.1%; remaining binding at 1 µM [21]: 17%; remaining binding at 1 µM [22]: 0.6%; % Cont @ 1 uM [23]: 33% |
